In the supplement of paper PMC10307832:

Tests used:
Assay in all cases: relative viability (nuclei count vs DMSO), 5 days (fraction); higher = more cells survive
OSI-027 + Linsitinib = compound: COc1cccc2cc(-c3nc([C@H]4CC[C@H](C(=O)O)CC4)n4ncnc(N)c34)[nH]c12 [OSI-027] + C[C@]1(O)C[C@@H](c2nc(-c3ccc4ccc(-c5ccccc5)nc4c3)c3c(N)nccn32)C1 [Linsitinib] (partner 1 µM)
Method in brief: (§1)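 Relative viability equals treated-well nuclei counts divided by vehicle-well nuclei counts. Counts came from 4× images of lung cancer cell lines grown in 1536-well plates for 5 days after pin-tool dosing on the day after seeding. Dosing used one drug alone or a fixed anchor-drug dose plus five library-drug doses (not always all listed) in √10 steps, and values are medians of duplicate plates.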

Vemurafenib + Tozasertib = compound: CCCS(=O)(=O)Nc1ccc(F)c(C(=O)c2c[nH]c3ncc(-c4ccc(Cl)cc4)cc23)c1F [Vemurafenib] + Cc1cc(Nc2cc(N3CCN(C)CC3)nc(Sc3ccc(NC(=O)C4CC4)cc3)n2)n[nH]1 [Tozasertib] (partner 0.1 µM)
Method in brief: as §1

Vemurafenib + Navitoclax = compound: CCCS(=O)(=O)Nc1ccc(F)c(C(=O)c2c[nH]c3ncc(-c4ccc(Cl)cc4)cc23)c1F [Vemurafenib] + CC1(C)CCC(c2ccc(Cl)cc2)=C(CN2CCN(c3ccc(C(=O)NS(=O)(=O)c4ccc(N[C@H](CCN5CCOCC5)CSc5ccccc5)c(S(=O)(=O)C(F)(F)F)c4)cc3)CC2)C1 [Navitoclax] (partner 0.5 µM)
Method in brief: as §1

Vemurafenib + Decitabine = compound: CCCS(=O)(=O)Nc1ccc(F)c(C(=O)c2c[nH]c3ncc(-c4ccc(Cl)cc4)cc23)c1F [Vemurafenib] + Nc1ncn([C@H]2C[C@H](O)[C@@H](CO)O2)c(=O)n1 [Decitabine] (partner 2 µM)
Method in brief: as §1

Cell Line	relative viability (OSI-027 + Linsitinib; first compound 0.01 µM)	relative viability (OSI-027 + Linsitinib; first compound 0.03162 µM)	relative viability (OSI-027 + Linsitinib; first compound 0.1 µM)	relative viability (OSI-027 + Linsitinib; first compound 0.3162 µM)	relative viability (OSI-027 + Linsitinib; first compound 1 µM)	relative viability (Vemurafenib + Tozasertib; first compound 0.03162 µM)	relative viability (Vemurafenib + Tozasertib; first compound 0.3162 µM)	relative viability (Vemurafenib + Tozasertib; first compound 1 µM)	relative viability (Vemurafenib + Navitoclax; first compound 0.03162 µM)	relative viability (Vemurafenib + Navitoclax; first compound 0.3162 µM)	relative viability (Vemurafenib + Navitoclax; first compound 1 µM)	relative viability (Vemurafenib + Decitabine; first compound 0.03162 µM)	relative viability (Vemurafenib + Decitabine; first compound 0.3162 µM)	relative viability (Vemurafenib + Decitabine; first compound 1 µM)	relative viability (Vemurafenib + Tozasertib; first compound 0.1 µM)	relative viability (Vemurafenib + Navitoclax; first compound 0.1 µM)	relative viability (Vemurafenib + Decitabine; first compound 0.1 µM)
NCI-H1993	0.684	0.777	0.703	0.603	0.681	0.473	0.569	0.571	0.857	1.25	1.08	0.513	0.651	0.713			
SW 1573	0.777	0.712	0.771	0.586	0.462	0.162	0.193	0.26	0.927	1.09	0.934	0.386	0.484	0.452	0.192	1.12	0.442
NCI-H2085	0.884	0.847	0.82	0.753	0.422	0.754	0.802	0.508	1.05	1.23	1.09	0.495	0.536	0.597	0.727	0.972	0.529
EPLC-272H	1.08	1.05	1.12	0.866	0.961	0.277	0.281	0.182	1.05	1.13	1.06	0.337	0.472	0.399	0.106	0.916	0.367
HARA	0.894	0.803	0.908	0.831	0.201	0.0946	0.138	0.12	1.09	1.13	1.14	0.458	0.673	0.703	0.0784		0.368
LU99A	0.51	0.471	0.355	0.243	0.198	0.245	0.316	0.264	0.714	0.869	0.796	0.843		0.719	0.256	0.752	0.907
NCI-H2087	1.03	0.845	0.819	0.632	0.29	0.249		0.132	0.936		0.987	0.198	0.346	0.336	0.236	0.915	0.273
NCI-H1734	0.937	0.794	0.809	0.656	0.309	0.269	0.281	0.269	0.787	0.784	0.823	0.569	0.506	0.506	0.246	0.77	0.486
HCC-44	0.646	0.628	0.584	0.452	0.195	0.829		0.763	0.879	0.973	1.03	0.869	0.949	1	0.917	0.931	1.02
PC-3 [JPC-3]	0.943	1.01	0.971	0.867	0.834	0.853	0.904	0.881	0.728	0.936	0.788		0.81	0.888			
NCI-H1651	0.938		0.801	0.514	0.285	0.605	0.636	0.57	1.02	1.07	0.93	0.532	0.494	0.621	0.594	0.976	0.633
NCI-H460	0.95	0.34	0.627	0.186	0.105	0.389		0.156	1.17	1.02	1.07	0.435	0.485	0.501	0.28	1.14	0.511
LOU-NH91	0.954	0.902	0.808	0.69	0.521	0.599		0.705	0.698		0.759	0.74	0.703	0.863		0.369	0.638
RERF-LC-KJ	0.839	0.776	0.655	0.503	0.376	0.486	0.415	0.397	1.05	0.977	1.29	0.639	0.632	0.716	0.487	1.04	0.678
EKVX	0.986	0.894	0.779	0.652	0.292	0.351	0.383	0.326	0.898	1.03	0.847	0.368	0.37	0.397			
NCI-H441	0.643	0.452	0.399	0.387	0.206	0.708	0.476	0.591	0.798		0.735	0.252	0.28	0.231	0.561	0.614	0.262
NCI-H1395	1.18	1.16	0.924	0.857	0.77	0.722		0.779	1.37		1.18	0.726	0.706	0.72	0.815	0.999	0.698
